From article PMC12388504, “Antiparasitic Effect of Polyphenols and Terpenes from Natural Products Against Trypanosoma cruzi and Leishmania mexicana” (Metabolites, 2025)
Like-named read-outs stand apart in the source and are kept apart here.

How the values were obtained:
[1] = test system: T. cruzi epimastigotes NINOA strain; assay: Anti-Trypanosoma cruzi activity, epimastigotes NINOA strain (MTT); format: cell-based; settings: for IC50: 48 h, read-out: T. cruzi IC50 NINOA
Description: (§1) Epimastigotes from A1 and the NINOA strains were used to evaluate the trypanocidal activity. Both strains were maintained in liver infusion tryptose (LIT) medium, supplemented with 10% heat-inactivated FBS and 100 U/mL of penicillin plus 100 μg/mL of streptomycin. They were preserved by transferring 1 × 10^6 parasites/mL into a new culture medium every week. […] All compounds were initially prepared at 10 mg/mL, using dimethyl sulfoxide (DMSO) 0.2% as diluent. […] T. cruzi epimastigotes (1 × 10^6/well) were cultured in 96-well microliter plates and incubated for 48 h at 28 °C with the drugs at different concentrations in a final volume of 200 μL. DMSO 0.2% was included as a negative control. […] All assays were carried out in triplicate. The IC50 values were determined by Probit analysis.

[2] = test system: T. cruzi epimastigotes A1 strain; assay: Anti-Trypanosoma cruzi activity, epimastigotes A1 strain (MTT); format: cell-based; settings: for IC50: 48 h
Description: as §1

[3] = test system: L. mexicana promastigotes MNYC/BZ/62/M379 (M379) strain; assay: Anti-Leishmania mexicana activity, promastigotes M379 reference strain (MTT); format: cell-based; settings: for IC50: 48 h, read-out: L. mexicana IC50 M379
Description: (§2) The IC50 was determined using the Probit statistical tool. Each sample was assayed in triplicate in three independent experiments.

[4] = test system: L. mexicana promastigotes FCQEPS native isolate; assay: Anti-Leishmania mexicana activity, promastigotes FCQEPS native isolate (MTT); format: cell-based; settings: 48 h, read-out: L. mexicana IC50 FCQEPS
Description: as §2

[5] = Cytotoxic analysis against J774.2 macrophages (MTT); settings: mouse
Description: (§3) The assay was performed on mouse macrophages from the J774.2 cell line that were cultured in RPMI medium supplemented with 10% SFB, […] penicillin, […] streptomycin, and glutamine (2 mM) at 37 °C and in a 5% CO2 atmosphere. The medium was replaced at 2–3-day intervals. […] Cells in the presence of the maximum concentration of DMSO (0.2%) were included as a negative control; the metabolic activity of the cells was determined following the MTT method. The percentage of cell viability was calculated, and the half-maximal cytotoxic concentration (CC50) was determined by Probit analysis. Three independent assays were performed in triplicate each.

T. cruzi = settings: cited from earlier work
[6] = test system: J774.2 macrophage cell line; assay: Cytotoxic analysis against J774.2 macrophages (MTT); settings: for cytotoxicity (in words): J774.2 macrophages
Description: as §3

[7] = test system: Tulahuén strain of T. cruzi; set-up: method as in PMID 35698116; settings: in words; cited from earlier work
[8] = Trypanosoma cruzi, read-out: T. cruzi IC50 A1, epimastigotes, A1 strain, 48 h, MTT
[9] = Trypanosoma cruzi, epimastigotes, NINOA strain, MTT
[10] = Trypanosoma cruzi, epimastigotes, A1 strain, MTT, read-out: T. cruzi IC50 A1
[11] = Leishmania mexicana, promastigotes, M379 strain, MTT
[12] = Leishmania mexicana, promastigotes, FCQEPS native isolate, MTT
[13] = promastigotes, FCQEPS native isolate, MTT

SMILES | IC50 [1, 9] [µM] | IC50 [2, 10] [µM] | IC50 [3, 11] [µM] | IC50 [4, 12] [µM] | CC50 at 48 h ([5]; J774.2 macrophage cells) [µM] | also measured
OCc1ccc2c(c1)OCO2 [Compound 6, piperonyl alcohol] | – | – | – | – | – | IC50 ([1]; Trypanosoma cruzi): > 200 µM; IC50 [2, 8]: > 200 µM; IC50 ([3]; Leishmania mexicana): 23.61 ± 0.2 µM; IC50 ([4]; Leishmania mexicana): 49.11 ± 0.1 µM; CC50 at 48 h [5]: 62.2 ± 3.2 µM
CC1CCC(C(C)C)C(O)C1 (racemic) [dl-menthol] | – | – | – | – | – | IC50 (T. cruzi; dl-menthol): 173 µM
OCC=Cc1ccccc1 [Compound 9, cinnamyl alcohol] | > 200 | 22.12 ± 0.2 | 12.1 ± 0.2 | 29.06 ± 0.1 | 47.35 ± 0.1 | trypanocidal activity NINOA strain (in words) ([1]; epimastigotes, NINOA strain): no biological activity; cytotoxicity (in words) [6]: high cytotoxicity
OCc1ccc2ccccc2c1 [Compound 5, 2-naphtalenemethanol] | 119 | > 200 | 40.1 ± 4.7 | 125 | > 200 | IC50 ([1]; epimastigotes, NINOA strain, MTT): 125 ± 3.2 µM; IC50 [4, 13]: > 200 µM
OCCc1ccccc1 [Compound 7, phenethyl alcohol] | 48.24 ± 0.3 | > 200 | 21.7 ± 1.7 | 42.24 ± 0.1 | 89.6 | cytotoxicity (in words) [6]: high cytotoxicity
Oc1ccc(/C=C/c2cc(O)cc(O)c2)cc1 [resveratrol] | – | – | – | – | – | IC50 (T. cruzi; resveratrol): 40 µM
O=C(Cn1ccnc1[N+](=O)[O-])NCc1ccccc1 [Bzn, Benznidazole, reference compound] | 39.08 ± 0.1 | 30.3 ± 0.03 | – | – | – | –
OCc1ccccc1 [Compound 1, benzyl alcohol] | > 200 | 62.28 ± 0.2 | > 200 | 104 ± 0.3 | 26.5 ± 2.1 | –
CNC[C@H](O)[C@@H](O)[C@H](O)[C@H](O)CO.[O]=[Sb](=[O])[OH] [Glu, Glucantime, reference compound] | – | – | – | – | – | IC50 ([3]; promastigotes, M379 strain, MTT): > 200 µM; IC50 [4, 13]: 134 ± 4.3 µM; CC50 ([6]; read-out: Cytotoxicity CC50 J774.2, mouse macrophages J774.2, 48 h, MTT): > 273 µM
CC(C)[C@H]1CC[C@H](C)C[C@@H]1O [Compound 14, l-(-)-menthol] | 24.5 ± 0.7 | > 200 | 81.5 ± 4.7 | > 200 | > 200 | trypanocidal activity A1 strain (in words) ([2]; epimastigotes, A1 strain): no biological activity; trypanocidal activity against the Tulahuén strain [7]: null trypanocidal activity
CC1=CC[C@@H](C(C)(C)O)CC1 [Compound 16, α-terpineol] | > 200 | 14 ± 0.2 | 14 ± 0.2 | 75.57 ± 0.03 | – | CC50 at 48 h [5]: 63.4 ± 0.9 µM
OC1CCCC1 [Compound 18, cyclopentyl alcohol] | > 200 | 10.83 ± 0.1 | 5.48 ± 0.1 | 125.4 ± 0.2 | 24.4 ± 3.2 | –
CC(C)=CCC/C(C)=C/CO [Compound 12, geraniol] | 41 ± 1.2 | 125 ± 5.5 | 57 ± 5.1 | > 200 | – | CC50 at 48 h [5]: > 200 µM
CC(C)=CCC/C(C)=C\CO [Compound 13, nerol] | – | – | – | – | – | IC50 ([1]; Trypanosoma cruzi): 58.3 ± 0.3 µM; IC50 [2, 8]: 125 µM; IC50 ([2]; read-out: T. cruzi IC50 A1, epimastigotes, A1 strain, MTT): 65.7 ± 3.1 µM; IC50 ([3]; Leishmania mexicana): 106 ± 6 µM; IC50 ([4]; Leishmania mexicana): > 200 µM; CC50 at 48 h [5]: > 200 µM
C=C(C)[C@H]1CC=C(CO)CC1 [Compound 15] | > 200 | > 200 | 34.4 ± 2.8 | > 200 | > 200 | trypanocidal activity A1 strain (in words) ([2]; epimastigotes, A1 strain): no biological activity
COc1ccc(CCO)cc1 [Compound 8, 4-methoxyphenethyl alcohol] | > 200 | > 200 | 52.08 ± 0.5 | > 200 | > 200 | trypanocidal activity NINOA strain (in words) ([1]; epimastigotes, NINOA strain): no biological activity
CC(C)=CCO [Compound 10, prenol] | 27.3 ± 1 | > 200 | > 200 | > 200 | > 200 | leishmanicidal activity M379 strain (in words) ([3]; promastigotes, M379 strain): did not have leishmanicidal activity
CC1CS(=O)(=O)CCN1/N=C/c1ccc([N+](=O)[O-])o1 (stereo not shown) [Nfx, Nifurtimox, reference compound] | 19.3 ± 0.1 | 7.09 ± 0.1 | – | – | – | –
Cc1ccc(CO)cc1 [Compound 2, 4-methylbenzyl alcohol] | 51.85 ± 0.01 | 50.4 ± 1.8 | > 200 | > 200 | > 200 | –
Cc1ccccc1CO [Compound 3, 2-methylbenzyl alcohol] | > 200 | > 200 | 14.2 ± 0.2 | – | 64.2 ± 0.2 | cytotoxicity (in words) [6]: high cytotoxicity
CC(C)=CCCC(C)CCO (stereo not drawn) [Compound 11, β-citronellol] | 53.6 ± 3.3 | 21.54 ± 0.2 | 71 ± 1 | > 200 | > 200 | –
